# Experimental data published in article PMC13499021, “Cellular Assays for Dynamic Quantification of Deubiquitinase Activity and Inhibition” (Journal of molecular biology, 2023).
# Where “and” joins values, the source holds several entries; their conditions need not be identical. Identical values can stand only once. Like-named read-outs stand apart in the source and are kept apart here. Where a SMILES comes first, the peptide text is derived from it. The star is where a group is joined. Cbz = O=C(OCc1ccccc1)*
# Tests used:
# [1] = molecular target: T1, GFPNb^R35Q-USP7 (Homo sapiens, UniProt Q93009); assay type: cell-based
# T1 sequence (Q93009 with tags, fused parts or gaps limits assumed, stated change not applied): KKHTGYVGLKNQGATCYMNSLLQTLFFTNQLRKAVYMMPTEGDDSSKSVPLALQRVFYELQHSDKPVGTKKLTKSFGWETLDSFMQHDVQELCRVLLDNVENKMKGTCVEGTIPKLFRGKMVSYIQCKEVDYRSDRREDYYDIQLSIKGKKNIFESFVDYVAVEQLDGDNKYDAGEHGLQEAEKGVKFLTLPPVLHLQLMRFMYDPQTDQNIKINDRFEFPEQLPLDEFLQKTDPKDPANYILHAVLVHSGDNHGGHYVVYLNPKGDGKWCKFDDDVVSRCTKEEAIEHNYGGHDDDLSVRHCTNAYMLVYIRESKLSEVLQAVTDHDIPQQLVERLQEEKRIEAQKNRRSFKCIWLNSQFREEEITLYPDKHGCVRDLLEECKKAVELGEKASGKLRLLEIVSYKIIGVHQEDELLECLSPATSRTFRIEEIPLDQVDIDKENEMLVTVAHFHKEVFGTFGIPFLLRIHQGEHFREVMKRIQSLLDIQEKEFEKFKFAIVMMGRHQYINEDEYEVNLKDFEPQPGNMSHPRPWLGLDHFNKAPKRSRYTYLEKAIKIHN
# [2] = system: GFPNb^R35Q-USP28; assay type: cell-based
# [3] = system: KF LSCC cells; set-up: method as in PMID 34636321; conditions: cited from earlier work
# [4] = system: GFPNb^WT-USP7; assay type: cell-based
# [5] = system: GFPNb^R35Q-USP7; assay type: cell-based
# [6] = system: GFPNb^E103Q-USP7; assay type: cell-based
# [7] = system: GFPNb^R35Q-USP7; assay type: cell-based; conditions: read-out: cellular IC50
# [8] = system: USP7; conditions: cited from earlier work
# [9] = system: MM.1S cells; conditions: read-out: IC50, block of proliferation; cited from earlier work
# [10] = system: proteasome; assay type: cell-based
# [11] = molecular target: R-EGFP reporter (enhanced green fluorescent protein with an N-terminal arginine, made as the Ub-R-EGFP fusion)
# [12] = system: SARS2-PL^pro; assay type: cell-based
# [13] = system: SARS2 PL^pro; conditions: read-out: inhibitory concentrations (IC50); cited from earlier work
# [14] = system: homologous enzyme (PL^pro) from MERS; conditions: cited from earlier work
# [15] = system: homologous enzyme (PL^pro) from NL63; conditions: cited from earlier work
# [16] = molecular target: T1, GFPNb^R35Q-USP7; assay type: cell-based; remark: listed apart in the source
# [17] = system: purified USP7; conditions: purified USP7 and Ub-AMC substrate; reported; cited from earlier work
# [18] = 10 μM compound for 16 h, USP7 fused to WT GFP nanobody
compound,measurement,setting,value
Cc1ccc2c(N)c(C(=O)N[C@H]3CCc4cc(N5CC6CCC(C5)N6)ccc4C3)sc2n1 [FT206],inhibition,[1],no inhibition
same,dose-dependence of EGFP degradation rate,[2],little dose-dependence
same,inhibition,[2],potent inhibition
same,rate of degradation of the EGFP reporter,[2],fastest degradation
same,IC50,[2]; read-out: cellular IC50,0.104 µM and ~0.104 µM
same,proliferation of KF LSCC cells,[3],inhibit proliferation
O=C(C[C@@H](C(F)F)n1ccc(F)n1)N1CCC(O)(Cn2cnc3c(cnn3-c3ccc(F)cc3)c2=O)CC1 [FT671],change in EGFP fluorescence levels,[4],weak (if any) decrease
same,change in EGFP levels,[5],substantial decrease
same,change in EGFP levels,[6],substantial decrease
same,IC50,[7],0.014 µM
same,IC50,[8],0.052 µM
same,IC50,[9],0.033 µM
CC(C)C[C@@H](C=O)NC(=O)[C@H](CC(C)C)NC(=O)[C@H](CC(C)C)NC(=O)OCc1ccccc1 [MG132] (Cbz-Leu-Leu-Leu-aldehyde),elevation of EGFP level over baseline,[10],over 50 fold
CC(=O)c1cc([N+](=O)[O-])c(Sc2ccc(F)cc2F)s1 [P22077],change in EGFP fluorescence levels,[4]; [18],no inhibitory activity
same,change in EGFP levels,[6],no inhibitory activity
GFPNb E103Q-mCherry (VHH),"relative stabilization of EGFP in 293T-Ub-R-C3 cells (flow cytometry), WT nanobody-mCherry normalized to 1 (fold decrease against the WT nanobody)",[11],100
GFPNb E103Q-mCherry-USP7 fusion,"relative USP7 activity (EGFP stabilization, flow cytometry) in transfected 293T-Ub-R-C3 cells, against the WT nanobody fusion (fold less than the WT Nb fusion)",[11],3
GFPNb R35Q-mCherry (VHH),"relative stabilization of EGFP in 293T-Ub-R-C3 cells (flow cytometry), WT nanobody-mCherry normalized to 1 (fold decrease against the WT nanobody)",[11],50
GFPNb R35Q-mCherry-USP7 fusion,"relative USP7 activity (EGFP stabilization, flow cytometry) in transfected 293T-Ub-R-C3 cells, against the WT nanobody fusion (fold less than the WT Nb fusion)",[11],2
GRL0617,start of time dependent decrease in EGFP signal post-treatment,[12],2 h
same,IC50,[13],2.1 to 2.3 µM
same,activity against homologous enzyme,[14],inactive
same,activity against homologous enzyme,[15],inactive
XL177A,change in EGFP fluorescence levels,[4]; [18],weak (if any) decrease
same,change in EGFP levels,[16],substantial decrease
same,change in EGFP levels,[6],substantial decrease
same,IC50,[1]; read-out: cellular IC50,0.192 µM
same,IC50,[17],0.00034 µM
